Measurements: patent US6030950A, “Pharmaceutical therapeutic use of glutathione derivative” (priority 1987, dated 2000)
Read-outs that look alike come from different tables or passages of the source.

What was measured:
[1] = cited from earlier work
[2] = in vivo
human erythrocytes = details: incubation with 0.5 mg of reduced glutathione, 37° C., 30 minutes; 10 mL heparinised venous blood; n=20, average and standard deviation
Protocol: 1.1) In vitro experiment with human erythrocytes to improve and normalize the redox behavior:
Human venous blood (10 mL) was taken from each of 20 patients with different diseases and prevented from clotting by the addition of heparin.

[3] = human blood, oxygen deficiency stress, 600 mg slowly intravenously, 10 minutes after administration; n=50
Protocol: 2.2) Self-experiment on man to improve and/or normalize the redox status of the blood:
After a defined oxygen deficiency stress, the same parameters were determined in human blood as in the trial described above. In all 50 trials were carried out on different days
After that, glutathione was slowly administered intravenously in an amount of 600 mg.
Boundary conditions: Temperature of 20° C., air pressure of 758-770 mm Hg.

[4] = rabbit ear venous blood, oxygen deficiency stress, 10 mg/kg, 5-10 minutes after administration; n=30
Protocol: 2.1) Animal Experiments with rabbits to improve and/or normalize the redox status of the blood:
In 5 different rabbits, the following parameters were measured by the method and with the instrument of VINCENT in 30 experiments in venous blood:
redox potential E H or electron potential: rH2
The values were measured in the venous blood of the ear after a defined oxygen deficiency stress.
The following values were determined 5-10 minutes after the glutathione one was administered:
Boundary conditions: Temperature of 20° C., air pressure of 767 mm Hg.

[5] = molecular target: glucose-6-phosphate dehydrogenase (Homo sapiens, UniProt P11413); details: incubation with 0.5 mg reduced glutathione, 37° C., 30 minutes; n=22, average and standard deviation
Excerpt: (§1) 1.2) In vitro experiment on cell systems of human erythrocytes Under the same conditions as those for the experiment described above, the enzymes, glucose-6-phosphate dehydrogenase and glutathione reductase, from the erythrocytes of 22 patients, were investigated in vitro. n=22 (average value and standard deviation are given)

glutathione reductase = glutathione reductase (Homo sapiens, UniProt P00390); details: incubation with 0.5 mg reduced glutathione, 37° C., 30 minutes; n=22, average and standard deviation
Excerpt: as §1

[6] = test system: malignant melanoma from man; details: 300 mg three times per week
Excerpt: 2.4) Experiment with 40 healthy gray mice after transplantation of a malignant melanoma from person.
Forty healthy gray mice were inoculated with 10^6 malignant melanoma cells each.
III.1 Experiment with 40 healthy gray mice after transplantation of a malignant melanoma from person.

[7] = cited from earlier work; remark: listed apart in the source

Sequence of glucose-6-phosphate dehydrogenase (P11413 2-515 limits assumed): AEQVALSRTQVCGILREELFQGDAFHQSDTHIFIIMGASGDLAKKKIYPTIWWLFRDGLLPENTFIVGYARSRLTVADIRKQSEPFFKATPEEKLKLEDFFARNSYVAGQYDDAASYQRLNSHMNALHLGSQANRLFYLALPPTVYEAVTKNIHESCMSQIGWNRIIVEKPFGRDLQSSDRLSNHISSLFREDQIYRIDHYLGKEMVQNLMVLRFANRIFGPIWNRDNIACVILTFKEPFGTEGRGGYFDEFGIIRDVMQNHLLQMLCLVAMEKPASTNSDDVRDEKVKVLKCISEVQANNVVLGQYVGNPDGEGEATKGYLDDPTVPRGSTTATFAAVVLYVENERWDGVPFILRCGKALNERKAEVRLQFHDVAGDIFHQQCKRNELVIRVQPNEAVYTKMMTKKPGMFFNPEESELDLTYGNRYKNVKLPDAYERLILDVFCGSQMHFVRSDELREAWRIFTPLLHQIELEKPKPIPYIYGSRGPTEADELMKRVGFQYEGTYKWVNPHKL
Sequence of glutathione reductase (P00390 44-522): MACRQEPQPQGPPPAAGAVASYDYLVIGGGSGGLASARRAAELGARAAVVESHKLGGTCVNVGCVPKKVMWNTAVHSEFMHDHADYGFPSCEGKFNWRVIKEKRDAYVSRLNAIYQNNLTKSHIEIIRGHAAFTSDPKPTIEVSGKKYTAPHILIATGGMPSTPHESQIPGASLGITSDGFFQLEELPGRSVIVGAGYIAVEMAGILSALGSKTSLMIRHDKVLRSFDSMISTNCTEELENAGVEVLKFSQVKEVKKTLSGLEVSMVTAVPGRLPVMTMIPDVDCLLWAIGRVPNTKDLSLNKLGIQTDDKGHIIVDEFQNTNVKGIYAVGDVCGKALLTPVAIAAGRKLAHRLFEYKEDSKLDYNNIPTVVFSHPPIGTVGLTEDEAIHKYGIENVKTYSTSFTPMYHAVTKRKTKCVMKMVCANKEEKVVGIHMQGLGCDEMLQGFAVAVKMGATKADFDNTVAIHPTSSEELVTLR

For `N[C@@H](CCC(=O)N[C@@H](CS)C(=O)NCC(=O)O)C(=O)O` [reduced glutathione, gamma-glutamyl-cysteinyl-glycine], which “pK value for COOH(1)” value ([1]; COOH(1)) is on record?
The value was 3.53.

And the “pK value for COOH(2)” value ([1]; COOH(2))?
Its value is 2.12.

What about the “pK value for NH3+” value ([1]; NH3^+) of the same compound?
The value was 8.66.

And the “pK value for SH” value ([1]; SH)?
Its value is 9.66.

What about the “toxicity of the therapeutic dosage” value [2] of the same compound?
Its value is “nontoxic”.

What about the “content of intraerythrocytic reduced glutathione, value of incubation” value (human erythrocytes) of the same compound?
Its value is 1.99±0.15 mU.

And the “redox potential or electron potential rH2” value [3]?
Its value is 23.1 ± 1.4.

What about the “redox potential or electron potential rH2” value [4] of the same compound?
Its value is 21.8 ± 0.95.

And the “glucose-6-phosphate dehydrogenase, value after incubation” value [5]?
The value was 179±16 mU/10^9 erys.

And the “glutathione reductase, value after incubation” value (glutathione reductase)?
Its value is 11.3±1.2 U/10^11 erys.

And the “further animals died within 20 days” value ([6]; 30 mice, 10^6 melanoma cells)?
Its value is “five”.

What about the “further animals died within 30 days” value ([6]; 30 mice, 10^6 melanoma cells) of the same compound?
The value was “seven”.

What about the “animals died within 15 days” value ([6]; 30 mice, 10^6 melanoma cells, untreated controls died within 8-12 days) of the same compound?
The value was “three”.

And the “share of treated animals that survived the period of observation” value ([6]; 30 days after inoculation)?
Its value is 50%.

And the “animals that survived the period of observation” value ([6]; of 30 treated mice, 30 days after inoculation)?
Its value is “Fifteen”.

What about the solubility in ethanol ([7]; ethanol) of the same compound?
The solubility in ethanol was “soluble”.

What about the “solubility in water and physiological salt solution” value ([7]; water and physiological salt solution) of the same compound?
Its value is “readily soluble”.
